Like-named read-outs stand apart in the source and are kept apart here. Values belong to the compound of their own block, whether it stands above or below them.
Columns and labels:
[1] = system: Normal human keratinocytes; assay: Vitamin D3 metabolites' uptake by keratinocytes (cell associated radioactivity); type: in vitro ADME; details: for cell associated radioactivity: 60 picomolar; for rate of uptake by keratinocytes: Table 6, in words
Procedure: Vitamin D₃ Metabolites' Uptake:
Normal human keratinocytes were grown to confluence in Keratinocyte growth medium (KGM) containing 0.15 mM calcium. Medium was changed to fresh medium. The cells were then incubated in duplicate with 10,000 cpm (60 picomolar, or 25 picogram/ml medium) of 25-OH-D₃ or 1,25-(OH) ₂D₃ for various times (0 to 240 minutes). At different time intervals indicated in the Table below, the medium of appropriate wells were aspirated, and the wells were washed three times with a 0.2% bovine serum albumin solution in 50 mM Tris/0.15 M sodium chloride buffer pH 7.4. After the wash the cells in the wells were dissolved in 0.1 N sodium hydroxide, neutralized with 0. 1 N hydrochloric acid, mixed with 5 ml of scintillation fluid (Ecolume) and counted in a beta counter. The amount of cpm associated with the cells was calculated as the percent of total cpm added for each time point studied. Data in the table is expressed as cell associated radioactivity as % of total added. Each reported result is a mean of duplicate determinations.

[2] = system: Normal human keratinocytes; assay: Rate of DNA synthesis in keratinocytes (3H-thymidine incorporation; a decrease indicates growth inhibition / differentiation); type: cell-based; details: for cell growth inhibition: Table 1 (image); for activity at 3 µM: 3 μM lipid alone, read-out: DNA synthesis, 0 nM 25-OH-D3
Procedure: Methodology Used for Determining the Rate of DNA Synthesis in Keratinocytes After Treatment With Various Actives
• 1. Normal human keratinocytes isolated from neonatal foreskins by trypsin treatment were grown in DME medium/10% fetal calf serum in the presence of irradiated 3T3 mouse fibroblasts for establishing dividing keratinocyte colonies. Keratinocytes were grown under the above condition until their third passage. • 2. For the experiments, third passage keratinocytes were plated into a serum-free keratinocyte growth medium (KGM; obtained from Clonetics Corporation, San Diego, CA) containing 0.15 mM calcium. 20,000 to 30,000 cells were plated into each well of 24 well cell culture plates and grown for 5 days, until the cells reach about 80% confluence. • 3. Medium was changed to fresh medium and the various test materials were added to the medium from an ethanolic stock solution (10 AM). The final ethanol concentration in the cultures was kept below 0.2%. Control cultures received no tested material but were dosed with 0.2% ethanol. Each compound or combination was tested in three separate wells. By 4PM, 1 uCi of ³H-thymidine (Amersham Corp., Sp activity 40 Ci/mmol) was added to the 1 ml medium in each well. The cells were incubated overnight and 24 hours later (10 AM next day) the amount of ³H-thymidine associated with the cellular DNA of keratinocytes was assessed as described below. • 4. The medium was aspirated, and the wells washed with 1 ml phosphate-buffered saline. The DNA and proteins of the cells in the plate were then precipitated by adding 1 ml of ice-cold 10% trichloroacetic acid (TCA). The plates were left on ice for 30 minutes to complete the precipitation process. TCA was then aspirated and each well was then washed four times with 5% TCA. The plates were then dried on a filter pad and the cells in the wells were dissolved in 0.5 ml of 0.1 N sodium hydroxide. The sodium hydroxide was then neutralized using 0.1 N hydrochloric acid and the solution (1 ml total volume) was then transferred to a scintillation vial. 100 ul samples from each vial were used for protein assay using BCA protein assay reagent obtained from Pierce Chemical Company. 8 ml of a scintillation fluid (Ecolume) was added to the rest of the solution in the vial, and the vials were counted in a scintillation counter to determine the amount of radioactivity in each vial. The DNA synthesis rate was then calculated as cpm ³H thymidine incorporated into total cellular DNA/microgram of cell protein for each individual well. Mean and standard deviation for each group was also calculated. […] All lipids listed in Tables 1-5 below were synthesized in-house. 25-OH-D₃ and 1,25-(OH)₂D₃ were obtained from Hoffman La Roche. Vitamin D ₃ was obtained from Sigma. • 6.

keratinocytes = details: as shown by Bikle et al.; cited from earlier work
[3] = 0 minutes, mean of duplicate determinations
[4] = 100 nM, alone, 25-OH-D3 in two experiments, 1,25-(OH)2D3 in one experiment
[5] = 1000 nM, compound alone, consistently observed only at this concentration
[6] = Homo sapiens, Keratinocyte, 24 h, Table 5

Compound: C=C1/C(=C\C=C2/CCC[C@]3(C)[C@@H]([C@H](C)CCCC(C)(C)O)CC[C@@H]23)C[C@@H](O)C[C@@H]1O [1,25-(OH)2D3, 1,25-dihydroxycholecalciferol]
cell associated radioactivity [1, 3]: 0.8 % of total added
cell associated radioactivity ([1]; 2 minutes): 2.7 % of total added
cell associated radioactivity ([1]; 5 minutes): 4.2 % of total added
cell associated radioactivity ([1]; 10 minutes): 13.0 % of total added
cell associated radioactivity ([1]; 15 minutes): 10.0 % of total added
cell associated radioactivity ([1]; 30 minutes): 20.0 % of total added
cell associated radioactivity ([1]; 60 minutes): 15.6 % of total added
cell associated radioactivity ([1]; 120 minutes): 26.2 % of total added
cell associated radioactivity ([1]; 240 minutes): 30.8 % of total added
rate of uptake by keratinocytes [1]: rapidly taken up
cell growth inhibition [2, 4]: cell growth inhibition was also observed
cell growth inhibition [2, 5]: statistically significant cell growth inhibition
catabolism by keratinocytes (keratinocytes): catabolized to inactive metabolites rapidly

cell associated radioactivity [1, 3]: 2.5 % of total added
cell associated radioactivity ([1]; 2 minutes): 3.2 % of total added
cell associated radioactivity ([1]; 5 minutes): 0.3 % of total added
cell associated radioactivity ([1]; 10 minutes): 3.4 % of total added
cell associated radioactivity ([1]; 15 minutes): 8.3 % of total added
cell associated radioactivity ([1]; 30 minutes): 8.1 % of total added
cell associated radioactivity ([1]; 60 minutes): 6.2 % of total added
cell associated radioactivity ([1]; 120 minutes): 6.8 % of total added
cell associated radioactivity ([1]; 240 minutes): 9.8 % of total added
rate of uptake by keratinocytes [1]: substantially slower rate
Compound: C=C1CC[C@H](O)C/C1=C/C=C1\CCC[C@]2(C)[C@@H]([C@H](C)CCCC(C)(C)O)CC[C@@H]12 [Formula 25-OH-D3, 25-hydroxycholecalciferol]
activity at 0.001 µM ([2]; Homo sapiens, Keratinocyte, 24 h, 1 nM 25-OH-D3, no ceramide, read-out: DNA synthesis, 25-OH-D3 alone): 99.3 ± 1.91%
activity at 0.01 µM ([2]; Homo sapiens, Keratinocyte, 24 h, 10 nM 25-OH-D3, no ceramide, read-out: DNA synthesis, 25-OH-D3 alone): 97.2 ± 5.92%
activity at 0.1 µM ([2]; Homo sapiens, Keratinocyte, 24 h, 100 nM 25-OH-D3, no ceramide, read-out: DNA synthesis, 25-OH-D3 alone): 86.5 ± 5.47%
activity at 1 µM ([2]; Homo sapiens, Keratinocyte, 24 h, 1000 nM 25-OH-D3, no ceramide, read-out: DNA synthesis, 25-OH-D3 alone): 67.8 ± 5.92%
minimal effective concentration ([2]; Homo sapiens, Keratinocyte, 24 h, 25-OH-D3 employed alone, read-out: concentration of 25-OH-D3 at which inhibition of keratinocyte growth was observed): 0.1 to 1 µM
activity at 0.01 µM ([2]; Homo sapiens, Keratinocyte, 24 h, Table 4, 10 nM vitamin D3 or its metabolite, no ceramide, read-out: DNA synthesis, No ceramide): 95.3 ± 6.9%
activity at 0.1 µM ([2]; Homo sapiens, Keratinocyte, 24 h, Table 4, 100 nM vitamin D3 or its metabolite, no ceramide, read-out: DNA synthesis, No ceramide): 88.5 ± 7.2%
activity at 0.01 µM ([2]; Homo sapiens, Keratinocyte, 24 h, Table 5, 10 nM 25-OH-D3, No ceramide, read-out: DNA synthesis, 10 nM 25-OH-D3): 95.3 ± 6.9%
activity at 0.1 µM ([2]; Homo sapiens, Keratinocyte, 24 h, Table 5, 100 nM 25-OH-D3, No ceramide, read-out: DNA synthesis, 100 nM 25-OH-D3): 88.5 ± 7.2%
cell growth inhibition [2, 4]: cell growth inhibition was also observed
cell growth inhibition [2, 5]: statistically significant cell growth inhibition

Compound: CCCCCCCCCCCCCCCCN(CC(O)CO)C(C)=O (stereo not drawn) [neoceramide (Formula F), N-(2,3-dihydroxypropyl)-N-(hexadecyl)ethanamide]
activity at 3 µM [2, 6]: 81.1 ± 4.9%

Compound: CCCCCCCCCCCCCCCCN(CC(O)CO)C(=O)CCCCC (stereo not drawn) [neoceramide (Formula G), N-(2,3-dihydroxypropyl)-N-(hexadecyl)hexanamide]
activity at 3 µM [2, 6]: 103 ± 12.3%

Compound: CCCCCCCCCCCCCCCCN(CC(O)CO)C(=O)C(O)CCCCCC (stereo not drawn) [neoceramide (Formula H), N-(2,3-dihydroxypropyl)-N-(hexadecyl)-2-hydroxyoctanamide]
activity at 3 µM [2, 6]: 85.7 ± 0.9%

Compound: CCCCCCCCCCCCN(CC(O)CO)C(=O)C(O)CCCCCC (stereo not drawn) [neoceramide (Formula M), N-(2,3-dihydroxypropyl)-N-(dodecyl)-2-hydroxyoctnamide]
activity at 3 µM [2, 6]: 81.5 ± 6.4%

Compound: CCCCCCCCCCCCCCC(O)CN(CCO)C(=O)CCCCC (stereo not drawn) [pseudoceramide (Formula D)]
activity at 3 µM [2, 6]: 62 ± 12.8%

Compound: CCCCCCCCCCCCCCCCOCC(O)CN(CCO)C(C)=O (stereo not drawn) [pseudoceramide (Formula E)]
activity at 3 µM [2, 6]: 95.9 ± 22%

Compound: C=C1CC[C@H](O)C/C1=C/C=C1\CCC[C@]2(C)[C@@H]([C@H](C)CCCC(C)C)CC[C@@H]12 [vitamin D3, Vitamin D₃]
growth inhibition ([2]; vitamin D3 employed alone (Table 4)): does not show statistically significant growth inhibition
synergy with the ceramide in inhibiting keratinocyte growth ([2]; with ceramide of Formula A, even at 100 nM vitamin D3): did not show any synergy

Source: patent EP0711558A1, “Compositions for topical application to skin, hair and nails” (UNILEVER PLC, priority 1994, dated 1996)
